Values joined by “and” are separate entries in the source; they are usually repeats but may differ in a detail not shown here. Equal entries are not always repeated.
Test: xn = mol fraction of the nth substance listed

CC[P+](CC)(CC)CCOC.O=S(=O)([N-]S(=O)(=O)C(F)(F)F)C(F)(F)F + O=S(=O)([N-]S(=O)(=O)C(F)(F)F)C(F)(F)F.[Li+]
101.33 kPa
Conditions | electrical conductivity, 298.2 K [S/m] | electrical conductivity, 312.2 K [S/m] | electrical conductivity, 361.3 K [S/m] | viscosity, 298.2 K [mPa·s] | viscosity, 355.3 K [mPa·s]
x2 = 0.25 | 1 | – | – | 170 | 17
x2 = 0.39 | – | 0.8 | 1.5 | – | –

CCCC[N+](CCCC)(CCCC)CCCC.[Cl-] + CCC(=O)O
Conditions | viscosity [mPa·s]
298 K, 100 kPa, x1 = 0.5 | 3300

COCCn1cc[n+](C)c1.N#C[S-] + O=C1CCCO1
101 kPa
Conditions | electrical conductivity [S/m] | viscosity [mPa·s]
288.15 K, x1 = 0.7036 | 0.526 | 34.8
288.15 K, x1 = 1 | 0.223 | 86
293.15 K, x1 = 0.8038 | 0.505 | 39.2
298.15 K, x1 = 0.3001 | 1.63 | 4.18
298.15 K, x1 = 1 | 0.41 | 53
303.15 K, x1 = 0.3001 | 1.8 | 3.68
308.15 K, x1 = 0.6015 | 1.36 | 9.6
308.15 K, x1 = 0.9012 | 0.791 | 27.2
313.15 K, x1 = 0.1027 | 1.99 | 1.82
313.15 K, x1 = 0.5006 | 1.79 | 5.6
313.15 K, x1 = 0.7036 | 1.33 | 11.8
318.15 K, x1 = 0.3001 | 2.44 | 2.59
318.15 K, x1 = 0.4001 | 2.25 | 3.46
323.15 K, x1 = 0.1999 | 2.68 | 1.85
323.15 K, x1 = 0.4001 | 2.48 | 3.1
323.15 K, x1 = 0.5006 | 2.25 | 4.26
323.15 K, x1 = 0.7036 | 1.75 | 8.8
328.15 K, x1 = 0.9012 | 1.52 | 13.9
333.15 K, x1 = 0.1027 | – | 1.3
338.15 K, x1 = 0.6015 | 2.74 | 4.26
338.15 K, x1 = 0.7036 | 2.46 | 6
343.15 K, x1 = 0.5006 | 3.3 | 2.71
343.15 K, x1 = 0.7036 | 2.7 | 5.4

CS(C)=O + COCCCC[n+]1ccn(C)c1.C[C@@H](O)[C@H](N)C(=O)[O-]
100 kPa, x2 = 0
Conditions | viscosity [mPa·s]
288.15 K | 2.47
293.15 K | 2.21
298.15 K | 1.99
303.15 K | 1.81
308.15 K | 1.65
313.15 K | 1.51
318.15 K | 1.39

CCCC[N+]1(C)CCCC1.FC(F)(F)C(F)(F)[P-](F)(F)(F)(C(F)(F)C(F)(F)F)C(F)(F)C(F)(F)F + FC(F)(F)c1ccccc1
101 kPa, x1 = 1
Conditions | electrical conductivity [S/m] | viscosity [mPa·s]
298.1 K | 0.113 | 283
303 K | 0.146 | 214
308.1 K | 0.186 | 166.2
313 K | 0.23 | 122.1
318.1 K | 0.273 | 100.3
323 K | 0.332 | 80.1

CCCn1cc[n+](C)c1.N[C@@H](CO)C(=O)[O-] + O
100 kPa
Conditions | electrical conductivity [S/m] | viscosity [mPa·s]
298.15 K, x1 = 0.8782 | – | 2215
298.15 K, x1 = 0.9094 | – | 2314
298.15 K, x1 = 0.9257 | – | 2391
303.15 K, x1 = 0.9426 | – | 1547
308.15 K, x1 = 0.8782 | – | 912
313.15 K, x1 = 0.8656 | 0.0804 | –
313.15 K, x1 = 0.8956 | 0.0751 | –
313.15 K, x1 = 0.9115 | 0.0721 | –
318.15 K, x1 = 0.8936 | – | 432
318.15 K, x1 = 0.9094 | – | 438
318.15 K, x1 = 0.9115 | 0.102 | –
318.15 K, x1 = 0.928 | 0.0979 | –
323.15 K, x1 = 0.8809 | 0.15 | –
323.15 K, x1 = 0.8956 | 0.145 | –
323.15 K, x1 = 0.9426 | – | 337
328.15 K, x1 = 0.8809 | 0.199 | –
328.15 K, x1 = 0.9257 | – | 238
333.15 K, x1 = 0.8782 | – | 171
333.15 K, x1 = 0.9115 | 0.248 | –
338.15 K, x1 = 0.9115 | 0.319 | –
338.15 K, x1 = 0.9257 | – | 134.8
338.15 K, x1 = 0.928 | 0.312 | –

CS(C)=O + Cn1cc[n+](CCCN)c1.F[B-](F)(F)F
Conditions | viscosity [mPa·s]
328.15 K, 101 kPa, x2 = 0 | 1.249

CCCC[n+]1ccccc1C.F[B-](F)(F)F + O
298.15 K, 101 kPa
Conditions | electrical conductivity [S/m]
x1 = 0.0002702 | 0.13
x1 = 0.0004161 | 0.188
x1 = 0.0005097 | 0.233
x1 = 0.0007329 | 0.319
x1 = 0.0008948 | 0.368
x1 = 0.001084 | 0.463
x1 = 0.001244 | 0.516
x1 = 0.001427 | 0.588
x1 = 0.001581 | 0.634
x1 = 0.001768 | 0.707
x1 = 0.001923 | 0.76
x1 = 0.002048 | 0.787
x1 = 0.00219 | 0.841
x1 = 0.002294 | 0.878
x1 = 0.002423 | 0.917
x1 = 0.002448 | 0.92
x1 = 0.002543 | 0.96
x1 = 0.002708 | 1
x1 = 0.002791 | 1.03

CCCCCCCCCCCCCC[P+](CCCCCC)(CCCCCC)CCCCCC.[c-]1c[nH]nn1 + CCCC[n+]1ccn(C)c1.O=S(=O)([N-]S(=O)(=O)C(F)(F)F)C(F)(F)F
100 kPa
Conditions | viscosity [mPa·s]
278.15 K, x2 = 0.2 | 2422
283.15 K, x2 = 0.1 | 1490
283.15 K, x2 = 0.722 | 481
293.15 K, x2 = 0.301 | 663
298.15 K, x2 = 0.1 | 486
298.15 K, x2 = 0.388 | 428
298.15 K, x2 = 0.9 | 77
303.15 K, x2 = 0.1 | 353
303.15 K, x2 = 0.301 | 339
308.15 K, x2 = 0.2 | 273
313.15 K, x2 = 0.2 | 205
313.15 K, x2 = 0.388 | 174
318.15 K, x2 = 0.2 | 158
318.15 K, x2 = 0.301 | 147
318.15 K, x2 = 0.8 | 50
323.15 K, x2 = 0.301 | 115

CCCC[NH3+].O=[N+]([O-])[O-] + O
Conditions | viscosity
278.15 K, 101.33 kPa, x2 = 0.435 | 46.7 mPa·s
283.15 K, 101.33 kPa, x2 = 0.435 | 37.92 mPa·s and 48.9 mPa·s
288.15 K, 101.33 kPa, x2 = 0.435 | 31.29 mPa·s and 40.44 mPa·s
293.15 K, 101.33 kPa, x2 = 0.435 | 26.16 mPa·s and 33.68 mPa·s
298 K, 101 kPa, x2 = 0 | 108.5 mPa·s
298 K, 101 kPa, x2 = 0.294 | 33.93 mPa·s
298 K, 101 kPa, x2 = 0.801 | 3.93 mPa·s
298 K, 101 kPa, x2 = 0.9 | 2.18 mPa·s
298.15 K, 101.33 kPa, x2 = 0.435 | 22.32 mPa·s and 28.34 mPa·s
303.15 K, 101.33 kPa, x2 = 0.435 | 18.92 mPa·s and 23.98 mPa·s
308.15 K, 101.33 kPa, x2 = 0.435 | 16.33 mPa·s and 20.7 mPa·s
313.15 K, 101.33 kPa, x2 = 0.435 | 14.22 mPa·s and 17.85 mPa·s
318.15 K, 101.33 kPa, x2 = 0.435 | 12.47 mPa·s and 16.84 mPa·s
323.15 K, 101.33 kPa, x2 = 0.435 | 11.02 mPa·s and 13.73 mPa·s
328.15 K, 101.33 kPa, x2 = 0.435 | 9.79 mPa·s and 12.73 mPa·s
333.15 K, 101.33 kPa, x2 = 0.435 | 8.76 mPa·s and 10.31 mPa·s
338.15 K, 101.33 kPa, x2 = 0.435 | 7.87 mPa·s and 9.34 mPa·s

CCCCCCCCCCCCCC[P+](CCCCCC)(CCCCCC)CCCCCC.N#Cc1ccc[n-]1 + CCCCCC[n+]1ccn(C)c1.O=S(=O)([N-]S(=O)(=O)C(F)(F)F)C(F)(F)F
viscosity [mPa·s], 100 kPa
Conditions | x2 = 0 | x2 = 0.2 | x2 = 0.4 | x2 = 0.504
283.15 K | – | – | 940 | 810
288.15 K | 800 | 790 | – | –

C[N+](C)(CCCS(=O)(=O)O)C1CCCCC1.Cc1ccc(S(=O)(=O)[O-])cc1 + O
101 kPa
Conditions | viscosity [mPa·s]
303.15 K, x1 = 1 | 113700
308.15 K, x1 = 0.06028 | 6.925
308.15 K, x1 = 1 | 56930
313.15 K, x1 = 0.01059 | 1.118
313.15 K, x1 = 0.06028 | 6
318.15 K, x1 = 0.01059 | 1.007
318.15 K, x1 = 0.1459 | 38.93
328.15 K, x1 = 0.01059 | 0.8334
328.15 K, x1 = 0.02771 | 1.636
328.15 K, x1 = 0.06028 | 3.944

CS(C)=O + CCCC[n+]1ccn(C)c1.O=S(=O)([N-]S(=O)(=O)C(F)(F)F)C(F)(F)F
100 kPa
Conditions | electrical conductivity [S/m] | viscosity [mPa·s]
294.5 K, x2 = 0.02028 | 0.45 | –
298.15 K, x1 = 0.5903 | – | 13.22
303.15 K, x1 = 0.2885 | – | 23.78
303.15 K, x1 = 0.5026 | – | 13.9
308.15 K, x1 = 0.5903 | – | 9.52
308.15 K, x1 = 1 | – | 1.67
313.15 K, x1 = 0.0951 | – | 23.09
313.15 K, x1 = 0.2074 | – | 19.57
313.15 K, x1 = 0.5903 | – | 8.39
313.15 K, x1 = 1 | – | 1.53
323.15 K, x1 = 0.9012 | – | 2.15

CCCC[N+](CCCC)(CCCC)CCCC.[Cl-] + O=C(O)[C@@H]1CCCN1
100 kPa
Conditions | electrical conductivity, 313.15 K [S/m] | electrical conductivity, 323.15 K [S/m] | electrical conductivity, 333.15 K [S/m] | electrical conductivity, 343.15 K [S/m] | electrical conductivity, 353.15 K [S/m] | viscosity, 313.15 K [mPa·s] | viscosity, 323.15 K [mPa·s] | viscosity, 333.15 K [mPa·s] | viscosity, 343.15 K [mPa·s] | viscosity, 353.15 K [mPa·s]
x1 = 0.875 | 0.0343 | 0.0411 | 0.065 | 0.0965 | 0.127 | 389 | 172 | 97.5 | 54.2 | 32.1
x1 = 0.8889 | 0.0137 | 0.0249 | 0.0423 | 0.0735 | 0.108 | 901 | 306 | 171 | 85 | 53.8
x1 = 0.9 | 0.0446 | 0.0612 | 0.0869 | 0.11 | 0.142 | 1051 | 534 | 233 | 131 | 77.3
